Source: patent US11236090B2, “Substituted glutarimides as CDK inhibitors” (SHANGHAI MEIZER PHARMACEUTICALS CO., LTD., priority 2017, dated 2022)
pIC50: −log10 of the molar value.

Tests used:
[1] = test system: T47D cells; experiment: Inhibition of proliferation of T47D cells by CCK8 assay; format: cell-based; details: Homo sapiens, CCK8, 72 hours
Procedure: The inhibitory effect of the compound on the proliferation of T47D cells (commercially available from ATCC) was determined by the CCK8 method in vitro. The experimental steps were as follows: T47D cells were cultured in 1640 medium of 10% calf serum, seeded in a 96-well plate with 1.5×10^5/ml, and placed in a 37° C., 5% CO2 incubator. Each compound or the positive drug (Ribociclib) was dissolved in dimethyl sulfoxide (DMSO) to obtain a solution with a concentration of 100 mM, and then diluted to the desired concentration with the culture medium. The solutions were then added to the above 96-well plates. Each concentration has 3 wells with 50 μl per well. As a control, DMSO was diluted in the corresponding gradient and then added to the plate. After the 96-well plate was cultured in a 37° C., 5% CO2 cell incubator for 72 hours, 110 μl of CCK8 solution in 9% was added to each well, and it was cultured in the incubator for another 4 hours. The light absorption value at 450 nm was measured. The relative survival rate of the cells after the compound treatment was calculated based on the light absorption value. The IC50 of the compound against T47D cells was calculated by software.

[2] = molecular target: T1, CDK4 (Homo sapiens, UniProt P11802); experiment: CDK4 protein degradation activity by Western blot in MCF-7 cells; format: cell-based; parameters: host or cells: MCF-7; details: MCF7, compound 1 μM, 24 hours
Procedure: (§1) Cell lines: MCF-7 cell lines (human breast cancer cells, available from ATCC) were cultured in MEM medium containing 10% calf serum in a 37° C., 5% CO2, and saturated humidity incubator. DMSO control group and compound intervention group (1 μM) were set. Cells were collected after the treatment for 24 hours, then 100 μL of pre-chilled cell lysate was added and cells were lysed on ice for 30 minutes, total cell protein was extracted, and protein concentration was determined and quantified by bicinchoninic acid method. After routine gelatinization, loading, electrophoresis, then transferring to membrane and blocking, rabbit anti-human CDK4 (1:450) and rabbit anti-human CDK6 (1:150) were added and incubated at 4° C. overnight. The mixture was rinsed and then secondary antibody IgG (1:5000) was added. After the rinsing it was developed by the ECL developing solution, the Bio-Rad gel imaging system was used for scanning and imaging, and the computer software was used for analysis. […] (GAPDH) was used as an internal control. Image J software was used to analyze the gray scale of each band to calculate the degradation rate of the compound to degrade CDK4/6 protein.
Target sequence in this assay (P11802 whole entry): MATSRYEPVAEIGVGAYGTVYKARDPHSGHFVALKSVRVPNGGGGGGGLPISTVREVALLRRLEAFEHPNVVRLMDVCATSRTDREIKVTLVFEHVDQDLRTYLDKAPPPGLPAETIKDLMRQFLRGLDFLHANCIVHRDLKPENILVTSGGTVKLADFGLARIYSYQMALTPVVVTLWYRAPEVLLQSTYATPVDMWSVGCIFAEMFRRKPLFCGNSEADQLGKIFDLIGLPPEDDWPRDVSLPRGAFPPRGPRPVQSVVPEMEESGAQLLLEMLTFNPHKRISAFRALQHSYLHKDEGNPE

[3] = molecular target: T2, CDK6 (Homo sapiens, UniProt Q00534); experiment: CDK6 inhibition by Caliper assay; format: biochemical; details: compound 100 nM
Procedure: (§2) The experimental steps were as follows:
(§3) Preparation of 1×kinase reaction buffer (50 mM HEPES, PH 7.5; 0.0015% Brij-35) and kinase reaction termination solution (100 mM HEPES, PH 7.5; 0.0015% Brij-35; 0.2% Coating Reagent; 50 mM EDTA) preparation of experimental samples: 100 μL of 5 μM sample solution (dissolved in 100% DMSO) was added to a 96-well plate to obtain a 50×sample solution. As controls, two wells containing only 100 μL of 100% DMSO were set on the same plate. One was served as a control without samples and the other was served as a control without enzymes. 10 μL of sample and 90 μL of 1×kinase reaction buffer were added to a 96-well plate as a transfer plate. The transfer plate was shaken for 10 minutes.
(§4) Preparation of the test plate: taking 5 μL of each of the prepared samples in the 96-well transfer plate into a 384-well plate. Kinase reaction: to 5 μL of 5×compound solution (dissolved in DMSO, diluted 10 times with water) was added 10 μL of 2.5×CDK4/6 kinase solution (kinase was diluted with 1×kinase reaction buffer), which was incubated at room temperature for 10 min, and then 10 μL of 2.5×substrate peptide solution (FAM-labeled peptide and ATP were diluted with 1×kinase reaction buffer) was added. Termination of the kinase reaction: 25 μL of kinase reaction termination solution was added after being reacted at 28° C. for a period of time. The fluorescence (F) was tested on a Caliper and data was collected. The inhibition rate of kinase activity was calculated: the percent inhibition rate of kinase activity=(FDMSO control−Fsample)/(FDMSO control−Fnegative control)×100%, with DMSO as the solution control, and no kinase as the negative control.
Target sequence in this assay (Q00534 whole entry, species assumed): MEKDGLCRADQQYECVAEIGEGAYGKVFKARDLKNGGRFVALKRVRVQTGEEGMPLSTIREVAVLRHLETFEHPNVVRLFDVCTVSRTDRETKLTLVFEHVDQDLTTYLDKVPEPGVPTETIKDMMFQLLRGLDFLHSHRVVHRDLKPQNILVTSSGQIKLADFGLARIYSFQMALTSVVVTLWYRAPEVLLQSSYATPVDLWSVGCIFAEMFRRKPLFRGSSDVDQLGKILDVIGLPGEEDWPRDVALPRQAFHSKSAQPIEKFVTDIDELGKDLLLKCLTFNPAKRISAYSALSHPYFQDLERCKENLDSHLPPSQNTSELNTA
Target sequence in this assay (P30281 whole entry partner, species assumed): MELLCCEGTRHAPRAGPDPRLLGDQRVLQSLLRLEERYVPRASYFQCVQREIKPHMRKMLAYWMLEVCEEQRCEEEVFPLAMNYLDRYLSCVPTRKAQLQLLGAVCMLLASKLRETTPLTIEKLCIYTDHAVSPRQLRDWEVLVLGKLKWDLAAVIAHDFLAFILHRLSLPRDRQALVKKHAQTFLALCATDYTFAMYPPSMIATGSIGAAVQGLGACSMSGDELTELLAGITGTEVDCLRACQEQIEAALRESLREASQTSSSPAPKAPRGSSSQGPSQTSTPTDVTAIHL

[4] = molecular target: T2, CDK6; experiment: CDK6 protein degradation activity by Western blot in MCF-7 cells; format: cell-based; parameters: host or cells: MCF-7; details: MCF7, compound 1 μM, 24 hours
Procedure: as §1
Target sequence in this assay (Q00534 whole entry): as the sequence (Q00534 whole entry, species assumed) above

[5] = molecular target: T1, CDK4; experiment: CDK4 inhibition by Caliper assay; format: biochemical; details: compound 100 nM
Procedure: as §2, §3, §4
Target sequence in this assay (P11802 whole entry, species assumed): as the sequence (P11802 whole entry) above
Target sequence in this assay (P30281 whole entry partner, species assumed): as the sequence (P30281 whole entry partner, species assumed) above

[6] = test system: MCF-7 cells; experiment: Inhibition of proliferation of MCF-7 cells by MTT assay; format: cell-based; details: Homo sapiens, MCF7, 48 hours
Procedure: The inhibitory effect of the compound on the proliferation of MCF-7 cells (commercially available from ATCC) was determined by the MTT method in vitro. […] Each compound was dissolved in dimethyl sulfoxide (DMSO) to obtain a solution with a concentration of 10 mM, and then diluted to the desired concentration with a phosphate buffer solution. The solution was added to the above 96-well plate. Each concentration has 2 wells with 10 μl per well. Each concentration was tested in duplicate. As a control, DMSO was diluted in the corresponding gradient and then added to the plate. After the 96-well plate was cultured in a 37° C., 5% CO2 cell incubator for 48 hours, 20 μl of MTT solution in 5 mg/ml was added to each well, and it was cultured in the incubator for another 3 to 4 hours. 100 μl of lysate was added to each well and the cells were further incubated overnight in the incubator to fully dissolve the formazan crystals generated. The light absorption value at 492 nm was measured. The relative survival rate of the cells after the compound treatment was calculated based on the light absorption value. The IC50 of the compound against MCF-7 cells was calculated by software.

Structure (SMILES)	pIC50 [1]	Dmax at 1 µM [2]	inhibition at 0.1 µM [3]	Dmax at 1 µM [4]	inhibition at 0.1 µM [5]	pIC50 [6]
CN(C)C(=O)c1cc2cnc(Nc3ccc(N4CCN(CCOCCOCCOCCNc5cccc6c5C(=O)N(C5CCC(=O)NC5=O)C6=O)CC4)cn3)nc2n1C1CCCC1 (stereo not drawn) [Compound 18]	5.09	> 90%	29%	> 90%	80%	–
CC(=O)c1c(C)c2cnc(Nc3ccc(N4CCN(CCCCCNC(=O)COc5cccc6c5C(=O)N(C5CCC(=O)NC5=O)C6=O)CC4)cn3)nc2n(C2CCCC2)c1=O (stereo not drawn) [Compound 38]	–	> 90%	–	> 90%	–	–
CC(=O)c1c(C)c2cnc(Nc3ccc(N4CCN(CCOCCOCCOc5cccc6c5C(=O)N(C5CCC(=O)NC5=O)C6=O)CC4)cn3)nc2n(C2CCCC2)c1=O (stereo not drawn) [Compound 8]	–	50 to 90%	84%	50 to 90%	82%	6.70
CN(C)C(=O)c1cc2cnc(Nc3ccc(N4CCNCC4)cn3)nc2n1C1CCCC1 [Ribociclib, reference compound]	4.16	–	–	–	–	–
CC(=O)c1c(C)c2cnc(Nc3ccc(N4CCN(CCOCCCNc5cccc6c5C(=O)N(C5CCC(=O)NC5=O)C6=O)CC4)cn3)nc2n(C2CCCC2)c1=O (stereo not drawn) [Compound 28]	–	50 to 90%	–	50 to 90%	–	–
CN(C)C(=O)c1cc2cnc(Nc3ccc(N4CCN(CCOCCOCCOCCOc5cccc6c5C(=O)N(C5CCC(=O)NC5=O)C6=O)CC4)cn3)nc2n1C1CCCC1 (stereo not drawn) [Compound 20]	–	50 to 90%	–	50 to 90%	–	–
CC(=O)c1c(C)c2cnc(Nc3ccc(N4CCN(CCOCCOCCOCCOc5cccc6c5C(=O)N(C5CCC(=O)NC5=O)C6=O)CC4)cn3)nc2n(C2CCCC2)c1=O (stereo not drawn) [Compound 21]	–	50 to 90%	97%	50 to 90%	93%	6.80
CC(=O)c1c(C)c2cnc(Nc3ccc(N4CCN(CCOCCOCCOCCNc5cccc6c5C(=O)N(C5CCC(=O)NC5=O)C6=O)CC4)cn3)nc2n(C2CCCC2)c1=O (stereo not drawn) [Compound 16]	–	50 to 90%	68%	50 to 90%	97%	6.52
CN(C)C(=O)c1cc2cnc(Nc3ccc(N4CCN(CCOCCNC(=O)COc5cccc6c5C(=O)N(C5CCC(=O)NC5=O)C6=O)CC4)cn3)nc2n1C1CCCC1 (stereo not drawn) [Compound 48]	–	> 90%	–	50 to 90%	–	–
CC(=O)c1c(C)c2cnc(Nc3ccc(N4CCN(CCCCCCOc5cccc6c5C(=O)N(C5CCC(=O)NC5=O)C6=O)CC4)cn3)nc2n(C2CCCC2)c1=O (stereo not drawn) [Compound 23]	–	50 to 90%	–	50 to 90%	–	–
CN(C)C(=O)c1cc2cnc(Nc3ccc(N4CCN(CCCCCC(=O)Nc5cccc6c5C(=O)N(C5CCC(=O)NC5=O)C6=O)CC4)cn3)nc2n1C1CCCC1 (stereo not drawn) [Compound 3]	4.86	> 90%	86%	50 to 90%	97%	7.10
CC(=O)c1c(C)c2cnc(Nc3ccc(N4CCN(CCCCCCNc5cccc6c5C(=O)N(C5CCC(=O)NC5=O)C6=O)CC4)cn3)nc2n(C2CCCC2)c1=O (stereo not drawn) [Compound 26]	–	50 to 90%	–	50 to 90%	–	–
CN(C)C(=O)c1cc2cnc(Nc3ccc(N4CCN(CCCCCNC(=O)COc5cccc6c5C(=O)N(C5CCC(=O)NC5=O)C6=O)CC4)cn3)nc2n1C1CCCC1 (stereo not drawn) [Compound 47]	–	> 90%	–	50 to 90%	–	–
CN(C)C(=O)c1cc2cnc(Nc3ccc(N4CCN(CCOCCOCCNc5cccc6c5C(=O)N(C5CCC(=O)NC5=O)C6=O)CC4)cn3)nc2n1C1CCCC1 (stereo not drawn) [Compound 17]	–	50 to 90%	25%	50 to 90%	82%	–
CC(=O)c1c(C)c2cnc(Nc3ccc(N4CCN(CCCOCCNc5cccc6c5C(=O)N(C5CCC(=O)NC5=O)C6=O)CC4)cn3)nc2n(C2CCCC2)c1=O (stereo not drawn) [Compound 27]	–	50 to 90%	–	50 to 90%	–	–

Now from value to compound:

pIC50 [1]	Dmax at 1 µM [2]	inhibition at 0.1 µM [3]	Dmax at 1 µM [4]	inhibition at 0.1 µM [5]	pIC50 [6]	Structure (SMILES)
–	> 90%	43%	50 to 90%	80%	–	CN(C)C(=O)c1cc2cnc(Nc3ccc(N4CCN(CCOCCOCCOc5cccc6c5C(=O)N(C5CCC(=O)NC5=O)C6=O)CC4)cn3)nc2n1C1CCCC1 (stereo not drawn) [Compound 19]
–	> 90%	–	50 to 90%	–	–	CN(C)C(=O)c1cc2cnc(Nc3ccc(N4CCN(CCCNC(=O)COc5cccc6c5C(=O)N(C5CCC(=O)NC5=O)C6=O)CC4)cn3)nc2n1C1CCCC1 (stereo not drawn) [Compound 46]
–	50 to 90%	–	50 to 90%	–	–	CC(=O)c1c(C)c2cnc(Nc3ccc(N4CCN(CCCCCCCCOc5cccc6c5C(=O)N(C5CCC(=O)NC5=O)C6=O)CC4)cn3)nc2n(C2CCCC2)c1=O (stereo not drawn) [Compound 25]
–	–	85%	–	92%	–	CC(=O)c1c(C)c2cnc(Nc3ccc(N4CCN(S(=O)(=O)CCCCCOc5cccc6c5C(=O)N(C5CCC(=O)NC5=O)C6=O)CC4)cn3)nc2n(C2CCCC2)c1=O (stereo not drawn) [Compound 14]
–	> 90%	91%	> 90%	96%	–	CC(=O)c1c(C)c2cnc(Nc3ccc(N4CCN(CCCCOc5cccc6c5C(=O)N(C5CCC(=O)NC5=O)C6=O)CC4)cn3)nc2n(C2CCCC2)c1=O (stereo not drawn) [Compound 24]
–	–	69%	–	91%	6.66	CC(=O)c1c(C)c2cnc(Nc3ccc(N4CCN(CCOCCOCCNc5cccc6c5C(=O)N(C5CCC(=O)NC5=O)C6=O)CC4)cn3)nc2n(C2CCCC2)c1=O (stereo not drawn) [Compound 15]
–	–	79%	–	93%	–	CC(=O)c1c(C)c2cnc(Nc3ccc(N4CCN(C(=O)COCCOCCNc5cccc6c5C(=O)N(C5CCC(=O)NC5=O)C6=O)CC4)cn3)nc2n(C2CCCC2)c1=O (stereo not drawn) [Compound 11]
